Assay results reported in patent US5221616A, “Prevention of spontaneous complement activation in mammalian biological fluids” (Quidel Corporation, priority 1988, dated 1993).

Target: T1, C3 (Homo sapiens, UniProt P01024)
T1 construct: 250 μL of freshly drawn EDTA-normal human plasma (EDTA-NHP); from tissue; host or cells: normal human blood plasma (EDTA plasma; in A12 also citrate and heparin plasma)
Experiment: iC3b fragment EIA: spontaneous C3 activation in EDTA-NHP incubated with increasing concentrations of polyhydroxyl compound in water
Type: biochemical
Settings: 22° C. for 48 hr
Protocol: FIG. 1. […] 250 μL of freshly drawn EDTA-normal human plasma (EDTA-NHP) was mixed with 0 to 250 μL of 4M β-D-glucose dissolved in deionized water. All reaction mixtures were brought up to a final reaction volume of 500 μL using deionized water as the diluent. Each reaction mixture was mixed thoroughly, incubated at 22° C. for 48 hr and assayed for iC3b fragment levels. A non-incubated control (-70° C.) was prepared by mixing 1 part EDTA-NHP with 1 part 4M β-D-glucose dissolved in deionized water. This control reaction mixture was stored at -70° C. until it was assayed in the iC3b fragment EIA along with the incubated experimental samples.
Several different polyhydroxyl compounds were individually dissolved in deionized water to obtain solutions of each compound at a concentration approaching saturation at 22° C. Freshly drawn EDTA-NHP was mixed with increasing concentrations of the polyhydroxyl compound to be tested keeping the final reaction volumes constant. For example, 250 μL of freshly drawn EDTA-NHP was mixed with 0 to 250 μL of the concentrated polyhydroxyl solution to be tested. All reaction mixtures were brought up to a final reaction volume of 500 μL using deionized water as the diluent. Each reaction mixture was mixed thoroughly and incubated at 22° C. for 48 hr. A non-incubated control was prepared for each experiment by mixing 1 part EDTA-NHP with 1 part of the concentrated polyhydroxyl solution to be tested. This control mixture was held at -70° C. until it was thawed out, along with the other experimental samples, and assayed for the occurrence of spontaneous complement activation. For this initial set of experiments, iC3b fragment levels were quantitated in all test samples using the Cytotech monoclonal antibody based EIA procedure. The first analyte selected to be measured was iC3b since, based on previously published data as outlined above, it was anticipated that the C3 protein would be the most susceptible to spontaneous activation upon storage of EDTA-NHP in vitro.
All of the EIA tests employed in these studies utilized solid-phase monoclonal antibody capture assay kit procedures (Cytotech, Inc., San Diego, Calif.). The procedure was basically the same for each EIA kit. Briefly, in the first step of each EIA assay, 100 μL of standards, controls and diluted test specimens were incubated at 22° C., i.e., room temperature, in duplicate polystyrene microtiter wells precoated with a capture monoclonal antibody which specifically reacted with the complement fragment or complex under investigation. During this first incubation period, complement fragments or complexes were bound to the monoclonal antibody coated microassay wells. A wash cycle removed unbound materials.
In the second step, 50 μL of horseradish peroxidase (HRP)-conjugated purified IgG antibody, which reacted with the captured complement fragment or complex analyte, was added to each well and incubated at 22° C. A wash cycle removed unbound conjugate.
In the third step, 100 μL of the HRP enzyme substrate ABTS (0.034% ABTS and 0.0126% H2 O2 in 100 mM sodium citrate buffer, pH 4.0) was added to each well and incubated at 22° C. The bound HRP-conjugatedantibody reacted with the ABTS substrate producing a green color which was proportional to the amount of specimen analyte bound. The HRP-enzymatic reaction was stopped upon addition of 50 μL 250 mM oxalic acid. The substrate color intensity present in each well was measured at 405 nm using an automated EIA microplate reader and the analyte concentration/mL in the original test specimen was determined for each analyte from the appropriate standard curve.
iC3b EIA: The capture mouse monoclonal antibody used to coat microtiter wells for the iC3b fragment EIA was Cytotech MoAb 013III-1.1.6.1 which reacts with a neoantigenic determinant expressed on the iC3b activation fragment of human C3.

T1 sequence (P01024 672-1663 limits assumed): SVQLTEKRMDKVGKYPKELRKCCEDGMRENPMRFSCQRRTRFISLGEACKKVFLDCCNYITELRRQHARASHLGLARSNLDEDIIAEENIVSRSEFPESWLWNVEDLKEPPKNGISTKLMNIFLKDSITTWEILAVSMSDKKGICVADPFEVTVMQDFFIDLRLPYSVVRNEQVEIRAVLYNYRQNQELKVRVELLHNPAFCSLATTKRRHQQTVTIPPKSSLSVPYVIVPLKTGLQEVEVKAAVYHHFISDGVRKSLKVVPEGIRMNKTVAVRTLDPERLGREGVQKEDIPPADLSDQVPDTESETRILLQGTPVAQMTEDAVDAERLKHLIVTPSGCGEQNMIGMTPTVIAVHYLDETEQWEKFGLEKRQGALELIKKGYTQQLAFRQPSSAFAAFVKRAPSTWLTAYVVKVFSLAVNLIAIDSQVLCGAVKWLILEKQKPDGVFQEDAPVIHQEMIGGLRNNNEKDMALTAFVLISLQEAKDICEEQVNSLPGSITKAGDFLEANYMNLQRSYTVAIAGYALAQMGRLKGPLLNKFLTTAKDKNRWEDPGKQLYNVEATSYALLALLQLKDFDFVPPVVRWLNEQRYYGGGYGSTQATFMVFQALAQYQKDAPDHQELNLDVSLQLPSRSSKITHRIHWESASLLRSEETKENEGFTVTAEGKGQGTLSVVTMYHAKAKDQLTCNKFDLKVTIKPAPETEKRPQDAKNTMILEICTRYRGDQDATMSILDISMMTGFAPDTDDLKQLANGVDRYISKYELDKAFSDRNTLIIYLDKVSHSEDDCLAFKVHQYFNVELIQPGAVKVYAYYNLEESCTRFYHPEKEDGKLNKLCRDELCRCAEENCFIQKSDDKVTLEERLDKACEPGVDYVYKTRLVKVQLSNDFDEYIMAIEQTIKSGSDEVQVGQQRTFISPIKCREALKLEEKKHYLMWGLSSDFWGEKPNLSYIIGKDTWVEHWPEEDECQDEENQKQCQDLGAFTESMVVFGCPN
T1 sequence (P01024 23-667 limits assumed): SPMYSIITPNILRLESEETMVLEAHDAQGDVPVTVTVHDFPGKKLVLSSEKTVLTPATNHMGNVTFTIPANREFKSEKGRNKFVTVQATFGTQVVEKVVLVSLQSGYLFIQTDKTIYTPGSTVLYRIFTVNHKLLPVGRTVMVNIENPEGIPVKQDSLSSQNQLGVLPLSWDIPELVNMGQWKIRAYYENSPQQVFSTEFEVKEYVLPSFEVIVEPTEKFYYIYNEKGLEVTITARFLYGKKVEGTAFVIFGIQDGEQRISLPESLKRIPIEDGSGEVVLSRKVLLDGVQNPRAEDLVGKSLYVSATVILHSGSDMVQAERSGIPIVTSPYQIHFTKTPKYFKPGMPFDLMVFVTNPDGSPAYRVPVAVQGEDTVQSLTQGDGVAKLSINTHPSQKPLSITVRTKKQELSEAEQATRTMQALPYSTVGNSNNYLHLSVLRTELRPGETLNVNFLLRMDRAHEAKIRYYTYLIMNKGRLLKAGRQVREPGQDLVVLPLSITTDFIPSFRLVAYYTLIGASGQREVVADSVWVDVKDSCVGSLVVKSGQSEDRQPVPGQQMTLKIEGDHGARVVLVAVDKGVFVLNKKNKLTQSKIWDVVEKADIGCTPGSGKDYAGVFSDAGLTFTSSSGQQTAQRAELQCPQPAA

`OC[C@H]1O[C@@H](O)[C@H](O)[C@@H](O)[C@@H]1O` [β-D-glucose] was tested, and the “final concentration that completely prevented spontaneous iC3b fragment production” value (compared with -70° C. control) was no less than 1.3 M and the “spontaneous iC3b fragment production” value (increasing final concentrations of compound (galactose up to 2M)) was “inhibited with increasing concentrations”.
